Reference: ChEMBL document CHEMBL2073796, “Multidrug resistance protein 2 (MRP2) transports HIV protease inhibitors, and transport can be enhanced by other drugs” (AIDS, 2002)

Molecular target: ATP-binding cassette sub-family C member 2 (Homo sapiens, UniProt Q92887)
Assay: TP_TRANSPORTER: transepithelial transport (basal to apical) in MRP2-expressing MDCKII cells
Assay type: functional, cell-based
Settings: dog, mdck-ii

Sequence of ATP-binding cassette sub-family C member 2 (Q92887 whole entry): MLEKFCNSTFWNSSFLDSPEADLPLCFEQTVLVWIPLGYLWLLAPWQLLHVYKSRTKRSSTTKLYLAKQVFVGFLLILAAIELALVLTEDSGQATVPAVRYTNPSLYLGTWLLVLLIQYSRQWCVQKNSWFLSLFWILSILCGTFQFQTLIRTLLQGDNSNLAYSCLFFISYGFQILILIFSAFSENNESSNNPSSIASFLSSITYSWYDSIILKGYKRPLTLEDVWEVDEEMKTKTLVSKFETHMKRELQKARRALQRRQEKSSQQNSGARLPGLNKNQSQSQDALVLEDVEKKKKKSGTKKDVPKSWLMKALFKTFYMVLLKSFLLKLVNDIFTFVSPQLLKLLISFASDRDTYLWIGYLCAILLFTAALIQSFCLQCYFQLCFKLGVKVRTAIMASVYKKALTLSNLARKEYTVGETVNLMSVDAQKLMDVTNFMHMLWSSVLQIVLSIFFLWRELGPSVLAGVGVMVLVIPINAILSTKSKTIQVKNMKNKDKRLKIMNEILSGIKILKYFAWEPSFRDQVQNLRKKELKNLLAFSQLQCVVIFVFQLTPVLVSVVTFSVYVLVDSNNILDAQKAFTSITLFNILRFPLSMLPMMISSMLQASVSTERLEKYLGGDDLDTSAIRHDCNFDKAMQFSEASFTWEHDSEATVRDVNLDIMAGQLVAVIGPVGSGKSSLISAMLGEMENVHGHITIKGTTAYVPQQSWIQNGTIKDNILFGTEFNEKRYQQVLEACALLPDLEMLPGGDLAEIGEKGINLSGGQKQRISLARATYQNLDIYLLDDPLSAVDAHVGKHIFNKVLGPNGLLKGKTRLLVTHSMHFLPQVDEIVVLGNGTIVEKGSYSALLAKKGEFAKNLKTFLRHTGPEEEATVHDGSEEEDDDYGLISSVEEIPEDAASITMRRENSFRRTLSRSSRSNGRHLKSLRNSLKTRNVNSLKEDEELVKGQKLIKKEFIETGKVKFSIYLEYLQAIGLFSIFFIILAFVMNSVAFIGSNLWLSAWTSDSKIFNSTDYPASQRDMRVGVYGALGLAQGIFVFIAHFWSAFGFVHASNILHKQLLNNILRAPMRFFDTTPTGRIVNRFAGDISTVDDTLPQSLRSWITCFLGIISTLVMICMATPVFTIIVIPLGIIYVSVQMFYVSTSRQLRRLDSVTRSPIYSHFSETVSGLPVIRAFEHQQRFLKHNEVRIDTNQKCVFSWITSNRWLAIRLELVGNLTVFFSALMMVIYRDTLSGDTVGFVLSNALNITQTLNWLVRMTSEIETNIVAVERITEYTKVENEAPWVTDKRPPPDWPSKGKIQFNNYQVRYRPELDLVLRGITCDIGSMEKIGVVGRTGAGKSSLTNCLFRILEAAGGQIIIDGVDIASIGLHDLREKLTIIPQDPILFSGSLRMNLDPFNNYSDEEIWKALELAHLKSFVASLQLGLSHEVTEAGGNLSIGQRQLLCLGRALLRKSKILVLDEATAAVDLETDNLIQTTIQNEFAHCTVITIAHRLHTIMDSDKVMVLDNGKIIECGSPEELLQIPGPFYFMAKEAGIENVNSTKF

For `CC(C)(C)NC(=O)[C@@H]1CN(Cc2cccnc2)CCN1C[C@@H](O)C[C@@H](Cc1ccccc1)C(=O)N[C@H]1c2ccccc2C[C@H]1O.O`, the Activity was “substrate [+]”.
